Laboratory results taken from US20100190715A1, “Stable Formulations of Peptides” (Novo Nordisk A/S, priority 2003, published 2010).

Key:
[1] = ThT fluorescence assay of fibril formation (physical stability); format: physicochemical
Experimental: FIG. 1. ThT fluorescence assay of fibril formation in acylated GLP-1 samples. The samples contain 6 mg/ml acylated GLP-1, 5 μM ThT dissolved in water and adjusted to the stated pH. Experimental conditions are described in “Examples”. Briefly, the samples were incubated at 40° C. and shaken with 960 rpm in an Ascent Fluoroskan fluorescence plate reader. All data points are from the same experiment (i.e. all samples are from the same microtiterplate) and are means of eight replica and shown with standard deviations as error bars. Furthermore, these values at 20 and 40 hours are tabulated for each sample.
Low physical stability of a peptide may lead to amyloid fibril formation, which is observed as well-ordered, thread-like macromolecular structures in the sample eventually resulting in gel formation. This has traditionally been measured by visual inspection of the sample. However, that kind of measurement is very subjective and depending on the observer. Therefore, the application of a small molecule indicator probe is much more advantageous. Thioflavin T (ThT) is such a probe and has a distinct fluorescence signature when binding to fibrils [Naiki et al. (1989) Anal. Biochem. 177, 244-249; LeVine (1999) Methods. Enzymol. 309, 274-284].
The time course for fibril formation can be described by a sigmoidal curve with the following expression [Nielsen et al. (2001) Biochemistry 40, 6036-6046]:
Here, F is the ThT fluorescence at the time t (see FIG. 12). The constant t0 is the time needed to reach 50% of maximum fluorescence. The two important parameters describing fibril formation are the lag-time calculated by t0−2τ and the apparent rate constant kapp=1/τ.
Samples were prepared freshly before each assay. Usually, acylated GLP-1 was dissolved to 6 mg/ml in desired buffer or solvent. The pH of the sample was adjusted to the desired value using appropriate amounts of concentrated NaOH and HClO4. Thioflavin T was added to the samples from a 1 mM stock solution in H2O to a final concentration of 5 μM.
Sample aliquots of 100 μl were placed in a 96 well microtiter plate (Packard Opti-Plate™-96, white polystyrene). Usually, eight replica of each sample (corresponding to one test condition) was placed in one column of wells. The plate was sealed with Scotch Pad (Qiagen).
Incubation at given temperature, shaking and measurement of the ThT fluorescence emission were done in a Fluoroskan Ascent FL fluorescence platereader (Thermo Labsystems). Temperature setting is possible up till 45° C., but usually sat at 40° C. The orbital shaking is selectable up till 1200 rpm, but adjusted to 960 rpm with an amplitude of 1 mm in all the presented data. Fluorescence measurement was done using excitation through a 444 nm filter and measurement of emission through a 485 nm filter.
Each run was initiated by incubating the plate at the assay temperature for 10 min. The plate was measured each hour for typically 45 hours. Between each measurement, the plate was shaken and heated as adjusted.
The measurement points were saved in Microsoft Excel format for further processing and curve drawing and fitting was performed using GraphPad Prism. The background emission from ThT in the absence of fibrils was negligible. The data points are typically a mean of eight samples and shown with standard deviation error bars. Only data obtained in the same experiment (i.e. samples on the same plate) are presented in the same graph ensuring a relative measure of fibrillation between experiments.
The data set may be fitted to Eq. (1). However, since full sigmodial curves in this case are not usually achieved during the measurement time, the degree of fibrillation is expressed as ThT fluorescence at 20 and 40 hours, calculated as the mean of the eight samples and shown with the standard deviation.

[2] = Proton NMR spectroscopy of solvent and buffer effects on structure and dynamics in solution; format: physicochemical
Experimental: FIG. 10. Proton NMR spectrum of acylated GLP-1 with different additives at pH 7.9. N-terminal histidine signals of the imidazol sidechain are observed at approx 7.80 ppm and 7.00 ppm. The linewidth and position reflects the reduced flexibility of the N-terminal. NMR samples were prepared with 6 mg/ml acylated GLP-1 at pH 7.9 dissolved in 90%/10% H2O/D2O. NMR spectra were recorded at 600 MHz using a Varian Inova 600 MHz NMR instrument using 5 mm samples tubes. Sample volumes were 800 ul and spectra were measured at 27 degrees Celsius
FIG. 11. Amide protons of glu-9 (8.65 ppm) and gly-10 (8.42 ppm) under the same conditions as in FIG. 10. More intense amide proton signals reflect that these protons are relatively better shielded structurally from exchange with the water.
Proton NMR spectroscopy of proteins in solutions has become a powerful technique to study structure and dynamics of a pure protein in solution (Wüthrich, K, “NMR of Proteins and Nucleic Acids”, (1986), ISBN 0-471-82893-9). Each proton (or proton group) in a protein will give rise to a resonance peak at a frequency which depends on the chemical and physical environment in the vicinity of each proton (or proton group) in the protein. A skilled artisan in the field of protein NMR spectroscopy will be able to assign most of the resonance peaks of a proton NMR spectrum of a protein to specific protons (or proton groups) in the protein given that the actual behavior of the protein in solution give rise to a well resolved proton NMR spectrum (well known to the skilled artisan in the field). The line width of the resonance peaks in the protein NMR spectrum reflects to some extend the size and dynamic properties of the protein in solution.
Aqueous solution of acylated GLP-1 at concentrations between 1 and 30 mg/ml, with or without buffers in the pH range 7.0 to 8.2 give rise to NMR spectra that to a high extend allow the afore mentioned resonance assignment. Thus several resonances of the NMR spectrum of this peptide can be assigned to specific atomic groups in the peptide. Recording NMR spectra of acylated GLP-1 under the conditions mentioned above but with different buffer substances in the solution allows a direct comparison of the structural and dynamical changes that acylated GLP-1 undergo as different buffers are applied.

- fibril formation ([1]; 8 mM phosphate, pH8.15): fibril formation is already observed
- physical stability ([1]; 10 mM HEPES, pH gradually lowered from pH7.9 to pH7.51): slightly more physically unstable
- physical stability ([1]; 10 mM His, lowering the pH): only marginally less stable
- fibrillation ([1]; 10 mM NaCl added to solution in water pH 7.9): promotes fibrillation
- physical stability ([1]; aqueous solution non buffered or buffered with HEPES or BICINE, versus 8 mM phosphate pH7.92): significantly more physically stable
- tendency to fibril formation ([1]; phosphate lowered from 8 mM to 1 mM at pH7.9): Less tendency to fibril formation
- fibrillation ([1]; water adjusted to pH7.85, incubated 45 hours): No significant fibrillation
- fibrillation ([1]; water adjusted to pH8.14, incubated 45 hours): No significant fibrillation
- physical stability ([1]; water at pH7.53): comparable with 8 mM phosphate pH7.88
- order and rigidity of the N-terminal ([2]; non buffered solution or buffered with HEPES, bicine or histidine, pH 7.9): more ordered and rigid
Substance: Arg^34, Lys^26(N^ε-(γ-Glu(N^α-hexadecanoyl)))-GLP-1(7-37) [acylated GLP-1]
- fibrillation ([1]; 10 mM BICINE buffer): without significantly increasing the fibrillation compared to water at pH7.89
- fibrillation ([1]; 10 mM HEPES buffer): without significantly increasing the fibrillation compared to water at pH7.89
- physical stability ([1]; 10 mM HEPES pH7.73): as physically stable as in 8 mM phosphate pH8.15
- physical stability ([1]; 10 mM His, pH 7.5): much more physically stable than acylated GLP-1 in non buffered aqueous solution pH7.5
- physical stability ([1]; 10 mM His, pH7.9): same physical stability of acylated GLP-1 as obtained in water at pH7.9
- physical stability ([1]; 10 mM MOPS): more physical stable than a solution in 8 mM phosphate at pH8.14
- physical stability ([1]; 10 mM TES): more physical stable than a solution in 8 mM phosphate at pH8.14
- physical stability ([1]; dissolved in water rather than phosphate buffer (8 mM), 6 mg/ml, 40° C., 960 rpm): significant increase in physical stability
- fibrillation lag-time ([1]; lowering pH in the interval pH 8.2 to pH 7.5, all examples): shorter and shorter fibrillation lag-times
- amide proton resonances of glutamic acid residue 9 and glycine residue 10 ([2]; 8 mM phosphate at pH 7.9 compared to non-buffered, 6 mg/ml): almost disappearance of amides protons resonances
- protection of amide protons of Glu 9 and Gly 10 from water ([2]; aqueous solution without buffer substance versus 8 mM phosphate buffer): relatively more protected from the water molecules
- self-assembly in solution ([2]; concentration range 1 to 30 mg/ml): bundle up in assemblies with several but well defined and limited number of acylated GLP-1 molecules
